From patent publication US9580398B2, “Compounds, compositions, and methods for modulating ferroptosis and treating excitotoxic disorders” (The Trustees of Columbia University in the City of New York, priority 2012, dated 2017)

Legend:
[1] = tested on: erastin (10 μM)-treated HT-1080 cells; test: Inhibition of death in erastin (10 μM)-treated HT-1080 cells, viability by Alamar Blue; format: cell-based, human; settings: inhibition of death in erastin (10 μM)-treated HT-1080 cells; Alamar Blue; from dose response curves
Procedure: (§1) Cell viability was typically assessed in 384-well format by Alamar Blue (Invitrogen) fluorescence (ex/em 530/590) measured on a Victor3 platereader (Perkin Elmer, Waltham, Mass.). In some experiments, Trypan Blue dye exclusion counting was performed using an automated cell counter (ViCell, Beckman-Coulter Inc., Brea, Calif.). Cell viability in test conditions is reported as a percentage relative to the negative control treatment.
Flow cytometry data was analyzed using FloJo (9.3.2, Tree Star, Inc., Ashland, Oreg.). Chemical structures were drawn using ChemDraw Ultra (Cambridgesoft, Cambridge, Mass.). Computational determination of log P (Slog P function) was performed using MOE 2010.10 (Chemical Computing Group, Montreal, […].). Viability data was analyzed using Excel (Microsoft Corp., […].). Summary data and heatmaps were generated using R. Dose-response curves were computed by 4-parameter logistic regression in Prism 5.0c (GraphPad Software). Images were manipulated using Photoshop CS4 and Illustrator CS4 (Adobe, San Jose, Calif.).
The ability of various compounds disclosed herein to inhibit death in erastin (10 μM)-treated HT-1080 cells were tested. Cell viability was assessed by Alamar Blue. EC50 values (nM) were computed from dose response curves.

[2] = tested on: ERK phosphorylation in HT-1080 cells; test: Western blotting of ERK phosphorylation; format: cell-based, human
Procedure: Cells were trypsinized, pelleted, and washed once in PBS. Cells were lysed for 20 minutes in buffer containing: 50 mM HEPES pH 7.4, 40 mM NaCl, 2 mM EDTA, 0.5% Triton X-100, 1.5 mM sodium orthovanadate, 50 mM NaF, 10 mM sodium pyrophosphate, 10 mM sodium β-glycerophosphate, and protease inhibitor tablet (Roche, Nutley, N.J.). Unlysed cells and debris were pelleted for 10 minutes at 10,000 rpm in a benchtop microcentrifuge at 4° C., and the supernatant was removed and mixed with 5×SDS loading buffer. Samples were separated by SDS-polyacrylamide gel electrophoresis. Western transfer was performed using the iBlot system (Invitrogen). Membrane was blocked for 1 hour in Licor Odyssey Blocking Buffer (LI-COR) and incubated in primary antibody overnight at 4° C. Following three 5-minute washes in Tris-buffered saline (pH 7.4) with 1% Tween-20 (TBS-T), membrane was incubated with secondary antibodies for 45 minutes in the dark. The membrane was washed again in TBST for three 5-minute washes with protection from light and scanned using the Odyssey Imaging System (LI-COR). Antibodies used were as follows: rabbit anti-phospho p42/44 MAPK (Cell Signaling Technology, #9101) and rabbit anti-p42/44 MAPK (Cell Signaling Technology, #9102). The secondary antibody was IR dye 800CW goat anti-rabbit IgG (LI-COR).

[3] = tested on: HT-1080 cells; test: HT-1080 cell proliferation (Vi-Cell); format: cell-based, human; settings: over 48 hours
Procedure: as §1

[4] = 2,2-diphenyl-1-picrylhydrazyl (DPPH) assay, cell-free antioxidant potential; settings: test compound 0.05 mM, absorbance at 517 nm
Procedure: The stable radical DPPH (Blois, 1958) was dissolved in methanol to a final concentration of 0.05 mM. 1 mL of DPPH solution was added to 2 μL of each test compound dissolved in DMSO. The final concentration of each test compound was 0.05 mM. Samples were inverted several times and allowed to incubate at room temperature for 10 minutes. Samples were then aliquoted to white 96-well solid-bottom dishes (Corning) and absorbance at 517 nm was recorded using a TECAN M200 plate reader. All values were normalized to background (methanol only). The experiment was repeated twice. Results within each trial normalized to DMSO (=1.0), then averaged across trials.

Compound: CCOC(=O)c1ccc(NC2CCCCC2)c(N)c1 [Fer-1, ferrostatin-1]
- EC50 [1]: 0.095 µM
- ERK phosphorylation [2]: did not inhibit ERK phosphorylation
- HT-1080 cell proliferation [3]: did not inhibit ERK phosphorylation or arrest the proliferation of HT-1080 cells
- intrinsic antioxidant capability (DPPH) [4]: readily oxidized the stable radical 2,2-diphenyl-1-picrylhydrazyl (DPPH)
